Our source for the GI50 and TGI values is PubChem BioAssay (NCI).

Among the test systems are ACHN renal; BT-549 breast; COLO 205 colon; EKVX NSCLC; HOP-62 NSCLC; NCI/ADR-RES ovarian; SF-539 CNS; SW-620 colon; TK-10 renal.
What all share (test): inhibition of tumour cell growth, NCI panel, 48 h

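Five compound concentrations were applied to cells in 96-well plates for 48 hours; endpoints were derived by simple linear interpolation of the resulting dose-response curve. Abbreviation: GI50, concentration required for 50% inhibition of growth. TGI: total growth inhibition.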

With `O=C(/C=C/c1ccco1)c1ccc(Nc2ccnc3cc(Cl)ccc23)cc1`, the GI50 in the assay on ACHN renal was > 100 µM; with BT-549 breast it was > 100 µM; in the assay with COLO 205 colon, 39.2 µM; in the assay on EKVX NSCLC, > 100 µM; in the assay on HOP-62 NSCLC it was > 100 µM; in the assay on NCI/ADR-RES ovarian it was 75.8 µM. For the same molecule, the GI50 with SF-539 CNS is 15 µM; with SW-620 colon it was 3.51 µM; with TK-10 renal, > 100 µM. The TGI in the assay with ACHN renal, with BT-549 breast, in the assay on COLO 205 colon, with EKVX NSCLC, in the assay on HOP-62 NSCLC and in the assay with NCI/ADR-RES ovarian was > 100 µM throughout. The TGI in the assay on SF-539 CNS, with SW-620 colon and in the assay with TK-10 renal was > 100 µM in each case.

Consider `CCOC(=O)C(NC(=O)Nc1ccccc1)(Nc1cccc(Cl)c1)C(F)(F)F` (stereo not drawn), for which the TGI in the assay on ACHN renal, in the assay on BT-549 breast, with COLO 205 colon, with EKVX NSCLC, with HOP-62 NSCLC and with NCI/ADR-RES ovarian was > 100 µM throughout. Besides, the TGI in the assay with SF-539 CNS, with SW-620 colon and with TK-10 renal was > 100 µM each time.

Regarding `Cc1cc(C)c2c(=O)n(CC(O)CN3CCN(c4ncccn4)CC3)sc2n1` (stereo not drawn), the TGI in the assay with ACHN renal came to 32.4 µM; with BT-549 breast, 32.3 µM; with COLO 205 colon it was 33 µM; with EKVX NSCLC, 29.5 µM; in the assay with HOP-62 NSCLC, 42 µM; with NCI/ADR-RES ovarian it was 78 µM. For the same molecule, the TGI with SF-539 CNS amounted to 31.6 µM; in the assay on SW-620 colon it was 60.7 µM; in the assay with TK-10 renal, 32.1 µM.

Regarding `C/C(=C/CC[C@](C)(OC1OC(CO)C(O)C(O)C1OC1OC(C)C(O)C(O)C1O)[C@H]1CC[C@]2(C)[C@@H]1CC[C@@H]1[C@@]3(C)CC[C@H](O)C(C)(C)[C@@H]3C[C@H](O)[C@]12C)CO` (stereo partly drawn), the TGI in the assay on ACHN renal, in the assay on BT-549 breast, in the assay on COLO 205 colon, in the assay on EKVX NSCLC, with HOP-62 NSCLC and in the assay with NCI/ADR-RES ovarian was > 100 µM in each case. Also, the TGI in the assay on SF-539 CNS, in the assay on SW-620 colon and with TK-10 renal was > 100 µM in each case.

Consider `O=C1CCCc2ccc3c(c21)CC1(Cc2cc4c(cc2C1)CCCC4)C3`, for which the TGI with ACHN renal is 30 µM; in the assay with BT-549 breast, 72.6 µM; with COLO 205 colon, 31.1 µM; in the assay on EKVX NSCLC it was 81.9 µM; in the assay on HOP-62 NSCLC it was 57.1 µM; with NCI/ADR-RES ovarian it was > 100 µM. The results for the TGI with SF-539 CNS, with SW-620 colon and in the assay with TK-10 renal were 48.7 µM, 41.7 µM and 46.2 µM, respectively.

Consider `O=C(NCCc1ccc(F)cc1)c1cc(/C=C/c2cc(O)ccc2O)ccc1O`, for which the TGI in the assay on ACHN renal came out at 4.25 µM; with BT-549 breast, 2.97 µM; in the assay with COLO 205 colon, 13.6 µM; in the assay with EKVX NSCLC, 6.38 µM; in the assay with HOP-62 NSCLC it was 14.8 µM; with NCI/ADR-RES ovarian it was 10.7 µM. In addition, the TGI in the assay on SF-539 CNS was 5.84 µM; with SW-620 colon, > 100 µM; with TK-10 renal, 5.64 µM.

In the case of `CCOC(=O)C(C(N)=O)c1nc2cc([N+](=O)[O-])ccc2nc1/C=C(\O)c1ccc(C)cc1` (stereo not drawn), the TGI with ACHN renal is > 52.6 µM; in the assay with BT-549 breast, 51.4 µM; in the assay with COLO 205 colon it was > 93.2 µM; with EKVX NSCLC, > 100 µM; in the assay with HOP-62 NSCLC it was 33.9 µM; in the assay with NCI/ADR-RES ovarian, 53 µM. Moreover, the TGI in the assay on SF-539 CNS is 36.5 µM; in the assay on SW-620 colon, > 92.3 µM; in the assay with TK-10 renal, 30.2 µM.

On to `COc1c2c(cc3oc(=O)ccc13)OC(C)(C)C=C2`, for which the TGI in the assay on ACHN renal was 70 µM; in the assay with BT-549 breast it was 70.2 µM; with COLO 205 colon it was 73.6 µM; in the assay on EKVX NSCLC, > 125 µM; in the assay with HOP-62 NSCLC, > 125 µM; in the assay on NCI/ADR-RES ovarian it was 70.6 µM. The TGI with SF-539 CNS is > 125 µM; with SW-620 colon it was 84.6 µM; in the assay on TK-10 renal it was > 125 µM.

`CCOC(=O)Cn1c(=O)c2cc(C)cc3c(Cl)nc4c(OC)c(OC)cc1c4c32`: the TGI with ACHN renal, with BT-549 breast, in the assay with COLO 205 colon, with EKVX NSCLC, with HOP-62 NSCLC and with NCI/ADR-RES ovarian was > 100 µM each time. The TGI in the assay on SF-539 CNS, in the assay on SW-620 colon and in the assay on TK-10 renal was > 100 µM each time.

With `O=C1OS2(OC(=O)c3cccc4cccc2c34)c2ccccc21` (stereo not drawn), the TGI in the assay on ACHN renal, in the assay on BT-549 breast, in the assay on COLO 205 colon, in the assay on EKVX NSCLC, in the assay on HOP-62 NSCLC and in the assay on NCI/ADR-RES ovarian was > 100 µM throughout. The TGI in the assay on SF-539 CNS, with SW-620 colon and in the assay with TK-10 renal was > 100 µM in each case.

Turning to `COC(=O)[C@@]12CC3CN(Cc4c1[nH]c1ccccc41)C2CC3=O`, the TGI with ACHN renal, with BT-549 breast, with COLO 205 colon, in the assay with EKVX NSCLC, in the assay on HOP-62 NSCLC and in the assay on NCI/ADR-RES ovarian was > 100 µM throughout. In addition, the TGI in the assay with SF-539 CNS, with SW-620 colon and in the assay with TK-10 renal was > 100 µM each time.

Regarding `COc1ccc(/C=C/C=C2C(=O)NC(=S)NC2=O)cc1`, the TGI in the assay on ACHN renal is 16.7 µM; with BT-549 breast, 4.62 µM; in the assay with COLO 205 colon it was 13.5 µM; in the assay with EKVX NSCLC it was 25.7 µM; in the assay on HOP-62 NSCLC it was > 49.8 µM; in the assay on NCI/ADR-RES ovarian, 12.3 µM. Also, the values for the TGI in the assay with SF-539 CNS, in the assay with SW-620 colon and with TK-10 renal were 15.8 µM, 3.37 µM and 7.33 µM, respectively.

As to `Nc1c2c(nc3ccccc13)-c1ccccc1CCC2`, the TGI with ACHN renal turned out to be 26.5 µM; in the assay with BT-549 breast, 44.4 µM; with COLO 205 colon it was 27.1 µM; in the assay with EKVX NSCLC, 44.8 µM; in the assay on HOP-62 NSCLC, 22.3 µM; in the assay on NCI/ADR-RES ovarian it was 34.3 µM. Also, the TGI in the assay with SF-539 CNS was 26.2 µM; in the assay with SW-620 colon it was 26.2 µM; in the assay on TK-10 renal it was 25.2 µM.

Consider `CC(=O)NC1=NC(=O)/C(=C/c2ccc(Cl)cc2Cl)N1C`, for which the TGI in the assay on ACHN renal is > 100 µM; with BT-549 breast it was > 100 µM; in the assay on COLO 205 colon, > 100 µM; with EKVX NSCLC, 50.7 µM; in the assay with HOP-62 NSCLC, > 100 µM; in the assay on NCI/ADR-RES ovarian, > 100 µM. Further, the TGI in the assay with SF-539 CNS, with SW-620 colon and with TK-10 renal was > 100 µM in each case.

Regarding `COC(=O)/C=C1\C(=O)N(C(C)=O)c2ccccc21`, the TGI with ACHN renal came to 20.1 µM; in the assay with BT-549 breast, 27.4 µM; with COLO 205 colon, 29.3 µM; in the assay with EKVX NSCLC, 31 µM; in the assay on HOP-62 NSCLC, 30.2 µM; in the assay with NCI/ADR-RES ovarian, 62.8 µM. In addition, the TGI is > 46.4 µM with SF-539 CNS, > 100 µM with SW-620 colon and 21.7 µM in the assay on TK-10 renal.

As to `CC(C)=CCC[C@@H](C)c1c(O)c(O)c(C)c2nc3ccccc3nc12`, the TGI with ACHN renal amounted to 5.64 µM; in the assay on BT-549 breast, 17.1 µM; with COLO 205 colon, 18.1 µM; in the assay with EKVX NSCLC, 14.8 µM; in the assay on HOP-62 NSCLC, 8.48 µM; in the assay on NCI/ADR-RES ovarian, 7.48 µM. For the same molecule, the TGI with SF-539 CNS is 6.71 µM; in the assay with SW-620 colon it was > 100 µM; in the assay on TK-10 renal, 17 µM.

For `O=C1N2CCN=C2c2ccccc2C1(O)c1ccccc1` (stereo not drawn), the TGI in the assay on ACHN renal, in the assay on BT-549 breast, in the assay on COLO 205 colon, in the assay with EKVX NSCLC, in the assay on HOP-62 NSCLC and in the assay on NCI/ADR-RES ovarian was > 100 µM in each case. For the same molecule, the TGI with SF-539 CNS, in the assay with SW-620 colon and with TK-10 renal was > 100 µM in each case.

In the case of `COC12OC3(C4OC41)C(C(=O)O[C@H]3CO[Si](C)(C)C(C)(C)C)C2S(=O)(=O)c1ccccc1` (stereo partly drawn), the TGI in the assay with ACHN renal is > 83.9 µM; in the assay on BT-549 breast, > 100 µM; in the assay on COLO 205 colon, 47.3 µM; with EKVX NSCLC, > 5.18 µM; with HOP-62 NSCLC it was > 5.97 µM; in the assay with NCI/ADR-RES ovarian it was > 100 µM. For the same molecule, the TGI is > 100 µM with SF-539 CNS, > 31.6 µM with SW-620 colon and > 100 µM with TK-10 renal.

As to `CCOC(=O)n1c2ccccc2c2c(O)c(OC)c3c(c21)C(=O)NC3=O`, the TGI in the assay with ACHN renal is > 100 µM; in the assay with BT-549 breast, > 100 µM; in the assay with COLO 205 colon, 52.2 µM; in the assay on EKVX NSCLC, > 100 µM; in the assay with HOP-62 NSCLC, > 100 µM; in the assay with NCI/ADR-RES ovarian, 81.3 µM. For the same molecule, the TGI in the assay on SF-539 CNS, with SW-620 colon and in the assay with TK-10 renal was > 100 µM in each case.

On to `O=C(O)C(C1NCCS1)N1Cc2ccccc2C1` (stereo not drawn), for which the TGI in the assay on ACHN renal, with BT-549 breast, in the assay on COLO 205 colon, with EKVX NSCLC, with HOP-62 NSCLC and in the assay with NCI/ADR-RES ovarian was > 100 µM throughout. The TGI in the assay with SF-539 CNS, in the assay on SW-620 colon and in the assay on TK-10 renal was > 100 µM each time.

As to `O=C1NC(N2CCOCC2)=N/C1=C\c1ccccc1`, the TGI with ACHN renal, in the assay with BT-549 breast, with COLO 205 colon, in the assay with EKVX NSCLC, with HOP-62 NSCLC and with NCI/ADR-RES ovarian was > 100 µM throughout. The TGI in the assay with SF-539 CNS, with SW-620 colon and in the assay with TK-10 renal was > 100 µM each time.
